Each structure is given as a SMILES string.

What all share (format): cell-based, human
One assay deals with peripheral immune cells. The assay is described as follows: membrane-bound thiol expression of peripheral immune cells (CMTMR flow cytofluorimetry). Particulars: α-lipoic acid 50 μM, captopril 10 μM, combination at the same concentrations. As for the experimental part: Peripheral immune cells of healthy donors (n=9) were isolated from the peripheral blood by means of density gradient centrifugation. Lymphocytes having a donor-dependent relative proportion of about 90% in this case normally represent the main fraction of the resulting total population of mononuclear cells. 10% of the mononuclear cells are represented by monocytes. The mononuclear cells obtained were taken up in special cell culture media and incubated in a gas incubator at 37° C., a relative humidity of 98% and 5% relative air-CO2 content. The metabolism of the primarily resting immune cells was activated by means of mitogenic stimulation (0.5 μg/ml of phytohemagglutinin). In order to test the influence of the combinations used according to the invention on the thiol status of thiol-deficient immune cells, these were artificially thiol-depleted. This was carried out by culturing in thiol-deficient media (RPMI 1603) according to tested procedures. Comparison cultures using whole media (RPMI 1640) served for the definition of the best possible normal value under culture conditions. The expression of membrane-bound thiol groups was likewise determined by flow cytofluorimetry. In this connection, chloromethyltetramethylrhodamine (CMTMR) was employed as a thiol conjugate under the conditions of a blocked membrane potential and of an inhibited diffusion capacity of the cells. The fluorescence intensity of the bound fluorochrome molecules on the cell membrane is in this case in turn proportional to the amount of the thiol groups on the cell surface.

The test system of the next assay is T lymphocytes. The assay is described as follows: activation markers CD69, CD25, CD71 of phytohemagglutinin-stimulated T lymphocytes. Particulars: thiol-deficient cells, culture period of 72 hours, FIG. 3. As for the experimental part: In the culture batch described under example 1, human T lymphocytes were stimulated with […] of phyto-hemagglutinin. […] The influence of the combinations used according to the invention on the activation markers CD69 (early activation antigen), CD25 (intermediate activation antigen) and CD71 (late activation antigen) of T lymphocytes was investigated. In FIG. 3, the action of the combination of α-lipoic acid and ambroxole (FIG. 3a), and α-lipoic acid and enalapril (FIG. 3b) on the activation index of T lymphocytes is shown. Compared with normal T lymphocytes (activation index=1.0), in thiol-deficient cells a clear lowering of the activatability, confirming the cellular functional disorder, is to be noted. […] It can thus be concluded that the normalization of the cellular thiol status mediated by the combined use of α-lipoic acid and the respective effectors of the glutathione metabolism is accompanied by a restitution of the cellular functionality.

Assay [1] concerns peritoneal macrophages. Description: cellular thiol expression of peritoneal macrophages in kidney replacement therapy. Particulars: time kinetics over 14 days (n=12); FIG. 4. As for the experimental part: Peritoneal macrophages were isolated from the effluate of the peritoneal dialysis of high-grade renally insufficient patients, taken up in cell culture medium and incubated in a gas incubator at 37° C., a relative humidity of 98% and 7.5% relative air-CO2 content. In order to test the influence of the combinations used according to the invention on the thiol status of the peritoneal macrophages, in each case a fraction was treated with α-lipoic acid, the effector of the glutathione metabolism ambroxole or the ACE inhibitor enalapril or with the combination of α-lipoic acid/ambroxole or α-lipoic acid/enalapril, while in each case a further fraction was used as an untreated control. The determination of the cellular thiol status was carried out by means of the measuring method described under 1. The membrane expression of thiols was determined by means of the mean fluorescence intensity (mfi) of the sample (3000 cells/measurement) after coupling to a chloromethylfluorochrome derivative. In FIG. 4, the effect of the combination of α-lipoic acid and ambroxole (FIG. 4a), and α-lipoic acid and enalapril (FIG. 4b) in the time kinetics over 14 days is shown (n=12).

For assay [2], the system named is peritoneal macrophages. Description: degree of differentiation and activation of peritoneal macrophages (CD15, CD11c, CD69, CD71). Particulars: incubation for 6 days, control = 1.0, α-lipoic acid 50 μM, ambroxole 10 μM, enalapril 5 μM, captopril 10 μM. As for the experimental part:
Peritoneal macrophages were isolated from patients under kidney replacement therapy according to the processes described under example 3 and cultured in the presence of the combinations of α-lipoic acid and effectors of the glutathione metabolism named according to the invention. After incubation for 6 days, the degree of differentiation of the peritoneal macrophages was determined cytofluorometrically by means of the expression of the cell surface antigens CD15 and CD11c, and the degree of cellular activation by means of the coexpression of the activation antigens CD69 on CD15-positive cells and CD71 on CD11c-positive cells.

`O=C(O)CCCCC1CCSS1` (stereo not drawn) [α-lipoic acid]: the Membrane-bound thiol expression in the assay on peripheral immune cells (culture period 0 d) amounted to 2.37 ± 0.45 mfiBeads/Ratio; in the assay with peripheral immune cells (culture period 1 d) it was 2.65 ± 0.39 mfiBeads/Ratio; in the assay with peripheral immune cells (culture period 2 d), 2.43 ± 0.52 mfiBeads/Ratio; in the assay on peripheral immune cells (culture period 3 d), 2.31 ± 0.36 mfiBeads/Ratio; in the assay with peripheral immune cells (culture period 4 d) it was 2.26 ± 0.20 mfiBeads/Ratio; in the assay on peripheral immune cells (culture period 6 d), 2.19 ± 0.13 mfiBeads/Ratio. Also, the Membrane-bound thiol expression with peripheral immune cells (culture period 8 d) turned out to be 1.93 ± 0.20 mfiBeads/Ratio; in the assay on peripheral immune cells (culture period 10 d), 1.63 ± 0.16 mfiBeads/Ratio; in the assay with peripheral immune cells (culture period 12 d), 1.32 ± 0.21 mfiBeads/Ratio; in the assay with peripheral immune cells (culture period 14 d), 1.34 ± 0.20 mfiBeads/Ratio. For the same compound, the “effect on the activation index of T lymphocytes (in words)” value in the assay on T lymphocytes is given as “slight improvement in the cellular activatability”. The “effect on the cellular thiol expression of peritoneal macrophages (in words)” value in the assay with peritoneal macrophages [1] is reported as “increase in the cellular thiol expression”. For the same compound, in the assay with peritoneal macrophages [2] (CD69 on CD15-positive cells), the CD15/69 is given as 1.09 ± 0.08. Besides, the CD11c/71 with peritoneal macrophages [2] (CD71 on CD11c-positive cells) was 1.08 ± 0.09. Besides, the CD11c in the assay on peritoneal macrophages [2] is 1.21 ± 0.11. For the same compound, the CD15 in the assay with peritoneal macrophages [2] amounted to 1.18 ± 0.16.

These data come from patent US7531567B2, “Use of a medicament containing an effector of the glutathione metabolism together with α-lipoic acid in kidney replacement therapy” (Serumwerk Bernburg AG, priority 2001, dated 2009).
